Counter-ions that a name gives are not always drawn. Like-named read-outs stand apart in the source and are kept apart here.
Assays:
D3 receptor = D3 receptor binding, [3H]raclopride displacement; conditions: 0.5 nM 3H-raclopride; recombinantly produced D3 receptors, BHK 293 cells
[1] = molecular target: T1, human dopamine D4 receptor subtype (Homo sapiens, UniProt P21917); test: D4 receptor binding, [3H]YM-09151-2 displacement
T1 construct: expressed in transfected cells
T1 sequence (P21917 1-419): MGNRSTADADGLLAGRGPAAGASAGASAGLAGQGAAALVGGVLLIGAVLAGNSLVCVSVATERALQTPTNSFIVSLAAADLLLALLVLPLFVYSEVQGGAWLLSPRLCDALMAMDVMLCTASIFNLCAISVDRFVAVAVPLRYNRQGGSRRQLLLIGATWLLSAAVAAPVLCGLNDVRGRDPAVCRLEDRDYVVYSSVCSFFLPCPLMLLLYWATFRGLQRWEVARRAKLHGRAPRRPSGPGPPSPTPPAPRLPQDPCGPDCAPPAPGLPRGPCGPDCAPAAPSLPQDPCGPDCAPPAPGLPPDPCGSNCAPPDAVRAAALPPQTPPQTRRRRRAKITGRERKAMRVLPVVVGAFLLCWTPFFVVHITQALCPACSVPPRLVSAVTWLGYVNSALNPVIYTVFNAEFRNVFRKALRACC
Method: Assay for D4 receptor binding activity
Clonal cell lines expressing the human dopamine D4 receptor subtype were harvested in PBS and the cells centrifuged and the pellets stored at -80° C. until used in the binding assay. The pellets were resuspended and the cells lysed at 4° C. in 50 mM Tris pH 7.4 buffer containing 120 mM NaCl, 1 mM EDTA and 5 mM MgCl2. The homogenate is centrifuged at 48000× g for 10 minutes at 4° C. The resulting pellet is resuspended in fresh buffer and centrifuged again. After resuspension of the pellet in fresh buffer a […] aliquot is removed for protein determination. The remaining homogenate is centrifuged as above, the supernatant removed and the pellet stored at 4° C. until needed; at which time it is resuspended to a final concentration of […] with 50 mM Tris buffer (pH 7.4) and 120 mM NaCl just prior to use. Incubations were carried out for 60 minutes at 25° C. in the presence of 0.1 nM [^3 H] YM-09151-2. The incubation was terminated by rapid filtration through Whatman GF/C filters and rinsed with 2×4 ml washes of chiled 50 mM Tris (pH 7.4) and 120 mM NaCl. Non-specific binding was determined with 1 mM spiperone and radioactivity determined by counting in an LKB beta counter. Binding parameters were determined by non-linear least squares regression analysis, from which the inhibition constant Ki could be calculated for each test compound. The binding characteristics of some examples of this patent are shown in Table 2 for the dopamine D4 binding assay.

D2 receptor = D2 receptor (Rattus norvegicus, UniProt P61169); test: biochemical; type: binding
Method: Assay for D2 and D3 receptor binding activity
Striatial tissue is dissected from adult male Sprague Dawley rats or BHK 293 cells are harvested containing recombinantly produced D2 or D3 receptors. The sample is homogenized in 100 volumes (w/vol) of 0.05 M Tris HCl buffer at 4° C. and pH 7.4. The sample is then centrifuged at 30,000× g and resuspended and rehomogenized. The sample is then centrifuged as described and the final tissue sample is frozen until use. The tissue is resuspended 1:20 (wt/vol) in 0.05 M Tris HCl buffer containing 100 mM NaCl.
Incubations are carried out at 48° C. and contain 0.5 ml of tissue sample, 0.5 nM ^3 H-raclopride and the compound of interest in a total incubation of 1.0 ml.

[2] = 0.1 nM [3H]YM-09151-2, 60 min, 25° C., clonal cell lines expressing human D4 (Table 2), read-out: Ki
[3] = 0.5 nM 3H-raclopride, rat striatal homogenates (Table 1), read-out: D2 binding IC50

D2 receptor, sequence (P61169 whole entry): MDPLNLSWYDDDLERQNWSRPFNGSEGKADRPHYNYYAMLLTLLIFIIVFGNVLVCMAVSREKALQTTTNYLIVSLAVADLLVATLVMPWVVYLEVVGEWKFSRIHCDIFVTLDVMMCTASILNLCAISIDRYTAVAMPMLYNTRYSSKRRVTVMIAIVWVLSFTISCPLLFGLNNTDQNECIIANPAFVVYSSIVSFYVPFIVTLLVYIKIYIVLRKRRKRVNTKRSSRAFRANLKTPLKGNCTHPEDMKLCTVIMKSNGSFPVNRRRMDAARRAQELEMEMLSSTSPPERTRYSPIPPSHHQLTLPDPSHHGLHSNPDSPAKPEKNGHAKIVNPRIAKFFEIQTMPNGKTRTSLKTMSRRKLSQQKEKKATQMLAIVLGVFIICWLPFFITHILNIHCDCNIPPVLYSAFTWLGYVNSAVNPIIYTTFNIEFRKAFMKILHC

Row | SMILES | IC50 (D3 receptor) | Ki [1, 2] | IC50 (D2 receptor; [3]) | IC50 (D2 receptor) | Ki [1]
1 | C1=C(c2ccccc2)CCN(Cc2cccc(-c3ccccc3)c2)C1 [Compound 3, 3-[(4-1,2,3,6-tetrahydropyridin-1-yl)methyl]biphenyl hydrochloride] | 12 nM |  |  | 12 nM | 18 nM
2 | Cc1cc(-c2ccccc2)ccc1CN1CCC(Cc2ccccc2)CC1 [Compound 5, 3-phenyl-6-[(4-benzyl-piperidin-1-yl)methyl]toluenehydrochloride] | 2490 nM | 286 nM |  |  | 
3 | COc1ccc(CN2CCN(c3ncccn3)CC2)cc1-c1ccccc1 [Compound 2, 2-phenyl-4-[(4-(2-pyrimidinyl)-piperazinyl)methyl]anisole dihydrochloride] |  | 243 nM |  |  | 
4 | c1ccc(-c2cccc(CN3CCC(c4ccccc4)CC3)c2)cc1 [Compound 4, 3-[(4phenyl-piperidin-1-yl)methyl]biphenyl hydrochloride] | 61 nM | 28 nM | 5 nM |  | 
5 | COc1ccc(-c2ccccc2)cc1CN1CCN(c2ncccn2)CC1 [Compound 1, 4phenyl-2-[(4-(2-pyrimidinyl)-piperazinyl)methyl]-anisole dihydrochloride] |  | 32 nM | 175 nM |  | 
6 | CC(c1cccc(-c2ccccc2)c1)N(C)Cc1ccccc1 (centres unmarked) [Compound 6, N-(1-(3-biphenyl)ethyl-N-methylbenzylamine hydrochloride] | 6120 nM | > 75 nM |  |  | 

The next lines start with results.

Row | IC50 (D3 receptor) | Ki [1, 2] | IC50 (D2 receptor; [3]) | SMILES | IC50 (D2 receptor) | Ki [1]
7 | 1140 nM | 769 nM |  | c1ccc(CC2CCN(Cc3cccc(-c4ccccc4)n3)CC2)cc1 [Compound 10, 2-Phenyl-6-[(4benzyl-piperidin-1-yl)methyl]-pyridine] |  | 
8 |  | 1050 nM | 1940 nM | c1ccc(-c2cc(CN3CCN(c4ncccn4)CC3)cc(-c3ccccc3)c2)cc1 [Compound 8, 1-(2-pyrimidyl)-4-((3,5-diphenylphenyl)methyl)piperazine dihydrochloride] |  | 
9 | 342 nM | > 75 nM |  | COc1ccccc1N1CCN(C(C)c2cccc(-c3ccccc3)c2)CC1 (centres unmarked) [Compound 7, 1-(2-methoxyphenyl)-4-(1-(3-biphenyl)ethyl)piperazine dihydrochloride] |  | 
10 | 1610 nM | 600 nM |  | c1ccc(CC2CCN(Cc3ccnc(-c4ccccc4)n3)CC2)cc1 [Compound 11, 2-phenyl-4-[(4-benzyl-piperidin-1-yl)methyl]-pyrimidine dihydrochloride] |  | 
11 |  | 56 nM | 290 nM | c1ccc(CC2CCN(Cc3ccnc(-c4ccccc4)c3)CC2)cc1 [Compound 9, 2-phenyl-4-[(4-benzyl-piperidin-1-yl)methyl]-pyridine dihydrochloride] |  | 
